In the supplement of paper PMC11424490:

Assays:
SW837 = assay: combination cScore with adagrasib (Bliss gap around IC50) (%PoC); higher = stronger additive effect
Protocol: (§1)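 Combination screen of 179 inhibitors with the KRAS G12C inhibitor adagrasib (MRTX849) in dose matrices, CellTiter-Glo readout in NCI-H2122 (72 h), SW837 (144 h) and NCI-H358 cells. The cScore is the mean Bliss-independence gap (expected minus observed viability, in %PoC) over a 3x3 field around the IC50s of both drugs. Positive means additive, and >~10 is stated as clear additive.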

NCI-H2122 = assay: as above
Protocol: as §1

Compound | combination cScore with adagrasib (SW837) | combination cScore with adagrasib (NCI-H2122)
O=c1[nH]cc(F)c(=O)[nH]1 [Fluorouracil (5-FU)] + C=C(F)C(=O)N1CCN(c2nc(OC[C@@H]3CCCN3C)nc3c2CCN(c2cccc4cccc(Cl)c24)C3)C[C@@H]1CC#N [adagrasib] | -0.87 | 9.62
C[C@]12CC[C@@H]3c4ccc(O)cc4C[C@@H](CCCCCCCCC[S+]([O-])CCCC(F)(F)C(F)(F)F)[C@H]3[C@@H]1CC[C@@H]2O (stereo partly drawn) [Fulvestrant] + C=C(F)C(=O)N1CCN(c2nc(OC[C@@H]3CCCN3C)nc3c2CCN(c2cccc4cccc(Cl)c24)C3)C[C@@H]1CC#N [adagrasib] | 2.82 | 3.46
CN(C)c1ccccc1CN1CCCN(Cc2ccccc2N(C)C)C1c1ccncc1 [GANT61] + C=C(F)C(=O)N1CCN(c2nc(OC[C@@H]3CCCN3C)nc3c2CCN(c2cccc4cccc(Cl)c24)C3)C[C@@H]1CC#N [adagrasib] | -0.37 | 7.28
N#CN=C(NCCCCCCOc1ccc(Cl)cc1)Nc1ccncc1 [GMX1778] + C=C(F)C(=O)N1CCN(c2nc(OC[C@@H]3CCCN3C)nc3c2CCN(c2cccc4cccc(Cl)c24)C3)C[C@@H]1CC#N [adagrasib] | 2.82 | -7.75
CCOC(=O)CCNc1cc(N2CCc3ccccc3CC2)nc(-c2ccccn2)n1 [GSK-J4] + C=C(F)C(=O)N1CCN(c2nc(OC[C@@H]3CCCN3C)nc3c2CCN(c2cccc4cccc(Cl)c24)C3)C[C@@H]1CC#N [adagrasib] | 0.593 | 17.9
CC(C)c1cc(-c2n[nH]c(=O)n2-c2ccc3c(ccn3C)c2)c(O)cc1O [Ganetespib] + C=C(F)C(=O)N1CCN(c2nc(OC[C@@H]3CCCN3C)nc3c2CCN(c2cccc4cccc(Cl)c24)C3)C[C@@H]1CC#N [adagrasib] | 4.14 | -3.01
Nc1ccn([C@@H]2O[C@H](CO)[C@@H](O)C2(F)F)c(=O)n1 [Gemcitabine] + C=C(F)C(=O)N1CCN(c2nc(OC[C@@H]3CCCN3C)nc3c2CCN(c2cccc4cccc(Cl)c24)C3)C[C@@H]1CC#N [adagrasib] | -2.8 | -4.78
COc1ncc(-c2nc3c(n2C(C)C)[C@H](c2ccc(Cl)cc2)N(c2cc(Cl)cn(C)c2=O)C3=O)c(OC)n1 [HDM-201] + C=C(F)C(=O)N1CCN(c2nc(OC[C@@H]3CCCN3C)nc3c2CCN(c2cccc4cccc(Cl)c24)C3)C[C@@H]1CC#N [adagrasib] | 3.06 | 1.48
CC(=O)[C@]1(O)Cc2c(O)c3c(c(O)c2[C@@H](O[C@H]2C[C@H](N)[C@H](O)[C@H](C)O2)C1)C(=O)c1ccccc1C3=O [Idarubicin] + C=C(F)C(=O)N1CCN(c2nc(OC[C@@H]3CCCN3C)nc3c2CCN(c2cccc4cccc(Cl)c24)C3)C[C@@H]1CC#N [adagrasib] | 2.73 | 4.03
Cc1ccc(NC(=O)c2ccc(CN3CCN(C)CC3)cc2)cc1Nc1nccc(-c2cccnc2)n1 [Imatinib] + C=C(F)C(=O)N1CCN(c2nc(OC[C@@H]3CCCN3C)nc3c2CCN(c2cccc4cccc(Cl)c24)C3)C[C@@H]1CC#N [adagrasib] | -2.11 | -0.92
CC(C)NC[C@@H](C(=O)N1CCN(c2ncnc3c2[C@H](C)C[C@H]3O)CC1)c1ccc(Cl)cc1 [Ipatasertib] + C=C(F)C(=O)N1CCN(c2nc(OC[C@@H]3CCCN3C)nc3c2CCN(c2cccc4cccc(Cl)c24)C3)C[C@@H]1CC#N [adagrasib] | 6.57 | 1.14
O=C(/C=C\n1cnc(-c2cc(C(F)(F)F)cc(C(F)(F)F)c2)n1)NNc1cnccn1 [KPT-330] + C=C(F)C(=O)N1CCN(c2nc(OC[C@@H]3CCCN3C)nc3c2CCN(c2cccc4cccc(Cl)c24)C3)C[C@@H]1CC#N [adagrasib] | 3.48 | 8.01
CN[C@@H](C)C(=O)N[C@H](C(=O)N1CCC[C@H]1c1nc(C(=O)c2ccc(F)cc2)cs1)C1CCCCC1 [LCL161] + C=C(F)C(=O)N1CCN(c2nc(OC[C@@H]3CCCN3C)nc3c2CCN(c2cccc4cccc(Cl)c24)C3)C[C@@H]1CC#N [adagrasib] | 1.58 | -1.85
COc1ccccc1-c1cc(Nc2cccc(CS(N)(=O)=O)c2)ncn1 [LDC-067] + C=C(F)C(=O)N1CCN(c2nc(OC[C@@H]3CCCN3C)nc3c2CCN(c2cccc4cccc(Cl)c24)C3)C[C@@H]1CC#N [adagrasib] | 3.49 | 5.11
